Assay results: ChEMBL document CHEMBL6114952, “Synthesis and antitumor effects of novel betulinic acid derivatives bearing electrophilic moieties” (Bioorg Med Chem, 2025)
Activity calls are given as the source filed them. No cut-off for these calls is given here.

Legend:
MCF7 [1] = assay: Antiproliferative activity against human MCF7 cells assessed as inhibition of cell proliferation incubated for 48 hrs by MTT assay; assay type: functional, cell-based; settings: MCF7, 48 h
HeLa [2] = assay: Antiproliferative activity against human HeLa cells assessed as inhibition of cell proliferation incubated for 48 hrs by MTT assay; assay type: functional, cell-based
MDA-MB-231 = assay: Antiproliferative activity against human MDA-MB-231 cells assessed as inhibition of cell proliferation incubated for 48 hrs by MTT assay; assay type: functional, cell-based; settings: MDA-MB-231, 48 h
MCF7 [3] = assay: Inhibition of cell migration in human MCF7 cells incubated for 12 to 24 hrs by wound healing assay; assay type: functional, cell-based; settings: dose 1-4 µM, time 12-24 hrs
HeLa [4] = assay: Inhibition of cell migration in human HeLa cells incubated for 12 to 24 hrs by wound healing assay; assay type: functional, cell-based; settings: dose 1-4 µM, time 12-24 hrs
MCF7 [5] = assay: Inhibition of colony formation in human MCF7 cells assessed as decrease in colonies incubated for 10 days with replacement of medium for every 3 days by crystal violet staining based assay; assay type: functional, cell-based; settings: dose 0.5-2 µM, time 10.0 day
MCF7 [6] = assay: Induction of autophagy in human MCF7 cells incubated for 24 hrs by MDC probe based confocal microscopy analysis; assay type: functional, cell-based; settings: dose 0.5-2 µM
MCF7 [7] = assay: Induction of ROS generation in human MCF7 cells assessed as increase in intracellular ROS level at 0.5 to 2 uM incubated for 24 hrs by DCFH-DA staining based microscopic analysis; assay type: functional, cell-based; settings: dose 0.5-2 µM
MCF7 [8] = assay: Induction of apoptosis in human MCF7 cells assessed as viable cells at 0.5 uM incubated for 24 hrs by Annexin V-FITC/PI double staining based flow cytometric analysis (reference value: 83.2 %); assay type: functional; settings: read-out: Activity
MCF7 [9] = assay: Induction of apoptosis in human MCF7 cells assessed as early apoptotic cells at 0.5 uM incubated for 24 hrs by Annexin V-FITC/PI double staining based flow cytometric analysis (reference value: 1.56 %); assay type: functional
MCF7 [10] = assay: Induction of apoptosis in human MCF7 cells assessed as late apoptotic cells at 0.5 uM incubated for 24 hrs by Annexin V-FITC/PI double staining based flow cytometric analysis (reference value: 11.8 %); assay type: functional
MCF7 [11] = assay: Induction of apoptosis in human MCF7 cells assessed as necrotic cells at 0.5 uM incubated for 24 hrs by Annexin V-FITC/PI double staining based flow cytometric analysis (reference value: 3.44 %); assay type: functional
MCF7 [12] = assay: Induction of apoptosis in human MCF7 cells assessed as viable cells at 1 uM incubated for 24 hrs by Annexin V-FITC/PI double staining based flow cytometric analysis (reference value: 83.2 %); assay type: functional; settings: read-out: Activity
MCF7 [13] = assay: Induction of apoptosis in human MCF7 cells assessed as early apoptotic cells at 1 uM incubated for 24 hrs by Annexin V-FITC/PI double staining based flow cytometric analysis (reference value: 1.56 %); assay type: functional
MCF7 [14] = assay: Induction of apoptosis in human MCF7 cells assessed as late apoptotic cells at 1 uM incubated for 24 hrs by Annexin V-FITC/PI double staining based flow cytometric analysis (reference value: 11.8 %); assay type: functional
MCF7 [15] = assay: Induction of apoptosis in human MCF7 cells assessed as necrotic cells at 1 uM incubated for 24 hrs by Annexin V-FITC/PI double staining based flow cytometric analysis (reference value: 3.44 %); assay type: functional
MCF7 [16] = assay: Induction of apoptosis in human MCF7 cells assessed as viable cells at 2 uM incubated for 24 hrs by Annexin V-FITC/PI double staining based flow cytometric analysis (reference value: 83.2 %); assay type: functional; settings: read-out: Activity
MCF7 [17] = assay: Induction of apoptosis in human MCF7 cells assessed as early apoptotic cells at 2 uM incubated for 24 hrs by Annexin V-FITC/PI double staining based flow cytometric analysis (reference value: 1.56 %); assay type: functional
MCF7 [18] = assay: Induction of apoptosis in human MCF7 cells assessed as late apoptotic cells at 2 uM incubated for 24 hrs by Annexin V-FITC/PI double staining based flow cytometric analysis (reference value: 11.8 %); assay type: functional
MCF7 [19] = assay: Induction of apoptosis in human MCF7 cells assessed as necrotic cells at 2 uM incubated for 24 hrs by Annexin V-FITC/PI double staining based flow cytometric analysis (reference value: 3.44 %); assay type: functional
MCF7 [20] = assay: Induction of cell cycle arrest in human MCF7 cells assessed as accumulation of cells at G1 phase at 0.5 uM incubated for 24 hrs by PI/RNase staining based flow cytometric analysis (reference value: 52.7 %); assay type: functional
MCF7 [21] = assay: Induction of cell cycle arrest in human MCF7 cells assessed as accumulation of cells at S phase at 0.5 uM incubated for 24 hrs by PI/RNase staining based flow cytometric analysis (reference value: 26.4 %); assay type: functional
MCF7 [22] = assay: Induction of cell cycle arrest in human MCF7 cells assessed as accumulation of cells at G2/M phase at 0.5 uM incubated for 24 hrs by PI/RNase staining based flow cytometric analysis (reference value: 20.8 %); assay type: functional
MCF7 [23] = assay: Induction of cell cycle arrest in human MCF7 cells assessed as accumulation of cells at G1 phase at 1 uM incubated for 24 hrs by PI/RNase staining based flow cytometric analysis (reference value: 52.7 %); assay type: functional
MCF7 [24] = assay: Induction of cell cycle arrest in human MCF7 cells assessed as accumulation of cells at S phase at 1 uM incubated for 24 hrs by PI/RNase staining based flow cytometric analysis (reference value: 26.4 %); assay type: functional
MCF7 [25] = assay: Induction of cell cycle arrest in human MCF7 cells assessed as accumulation of cells at G2/M phase at 1 uM incubated for 24 hrs by PI/RNase staining based flow cytometric analysis (reference value: 20.8 %); assay type: functional
MCF7 [26] = assay: Induction of cell cycle arrest in human MCF7 cells assessed as accumulation of cells at G1 phase at 2 uM incubated for 24 hrs by PI/RNase staining based flow cytometric analysis (reference value: 52.7 %); assay type: functional
MCF7 [27] = assay: Induction of cell cycle arrest in human MCF7 cells assessed as accumulation of cells at S phase at 2 uM incubated for 24 hrs by PI/RNase staining based flow cytometric analysis (reference value: 26.4 %); assay type: functional
MCF7 [28] = assay: Induction of cell cycle arrest in human MCF7 cells assessed as accumulation of cells at G2/M phase at 2 uM incubated for 24 hrs by PI/RNase staining based flow cytometric analysis (reference value: 20.8 %); assay type: functional
[29] = biological target: Serine/threonine-protein kinase mTOR (Homo sapiens) (UniProt P42345); assay: Inhibition of mTOR phosphorylation in human MCF7 cells incubated for 24 hrs by Western blot analysis; assay type: cell-based; settings: dose 0.5-2 µM
MCF7 [30] = assay: Inhibition of AKT phosphorylation in human MCF7 cells incubated for 24 hrs by Western blot analysis; assay type: cell-based; settings: dose 0.5-2 µM
[31] = Antiproliferative activity against human Trastuzumab-resistant JIMT-1 cells at 0.5 uM by MTT assay relative to control; assay type: functional, Trastuzumab-resistant JIMT-1 cell
[32] = Antiproliferative activity against human Trastuzumab-resistant JIMT-1 cells at 0.5 uM in presence of trastuzumab by MTT assay relative to control; assay type: functional, Trastuzumab-resistant JIMT-1 cell
[33] = system: Trastuzumab-resistant JIMT-1 cell; assay: Inhibition of AKT phosphorylation in human Trastuzumab-resistant JIMT-1 cells at 1 uM by Western blot analysis; assay type: cell-based
[34] = biological target: Serine/threonine-protein kinase mTOR (Homo sapiens) (UniProt P42345); assay: Inhibition of mTOR phosphorylation in human Trastuzumab-resistant JIMT-1 cells at 1 uM by Western blot analysis; assay type: cell-based; settings: Trastuzumab-resistant JIMT-1 cell
[35] = system: Trastuzumab-resistant JIMT-1 cell; assay: Inhibition of AKT phosphorylation in human Trastuzumab-resistant JIMT-1 cells at 1 uM cotreated with trastuzumab by Western blot analysis; assay type: cell-based
[36] = biological target: Serine/threonine-protein kinase mTOR (Homo sapiens) (UniProt P42345); assay: Inhibition of mTOR phosphorylation in human Trastuzumab-resistant JIMT-1 cells at 1 uM cotreated with trastuzumab by Western blot analysis; assay type: cell-based; settings: Trastuzumab-resistant JIMT-1 cell
MCF7 [37] = assay: Antitumor activity against human MCF7 cells xenografted in female BALB/c mouse assessed as tumor growth inhibition at 5 mg/kg, iv administered daily for 14 days relative to control; assay type: functional; settings: MCF7, 336 h, time 14 day, read-out: TGI
[38] = Toxicity in female BALB/c mouse xenografted with human MCF7 cells assessed as body weight loss at 5 mg/kg, iv measured daily for 14 days; assay type: organism-based; settings: in vivo, 336 h, time 14 day
JIMT-1 = assay: Synergistic antiproliferative activity against human JIMT-1 cells assessed inhibition of cell growth at 0.25 to 1 uM by MTT assay; assay type: functional, cell-based; settings: dose 0.25-1 µM

C=C(C)[C@@H]1CC[C@]2(C(=O)O)CC[C@]3(C)[C@H](CC[C@@H]4[C@@]5(C)CC[C@H](OC(=O)N6CCN(C(=O)CCl)CC6)C(C)(C)[C@@H]5CC[C@]43C)[C@@H]12
IC50 (MCF7 [1]): 1.09 µM | IC50 (HeLa [2]): 1.11 µM | IC50 (MDA-MB-231): 1.66 µM | inhibition (MCF7 [3]): Dose-dependent-effect | inhibition (HeLa [4]): Dose-dependent-effect | inhibition (MCF7 [5]): Dose-dependent-effect | Activity (MCF7 [6]): Dose-dependent-effect | Activity (MCF7 [7]): Active | viability at 0.5 µM (MCF7 [8]): 79.7% | Activity (MCF7 [9]): 2.47% | Activity (MCF7 [10]): 15.3% | Activity (MCF7 [11]): 2.49% | viability at 1 µM (MCF7 [12]): 74.9% | Activity (MCF7 [13]): 1.99% | Activity (MCF7 [14]): 19.2% | Activity (MCF7 [15]): 3.93% | viability at 2 µM (MCF7 [16]): 72.3% | Activity (MCF7 [17]): 2.72% | Activity (MCF7 [18]): 22% | Activity (MCF7 [19]): 2.93% | Activity (MCF7 [20]): 54.7% | Activity (MCF7 [21]): 22% | Activity (MCF7 [22]): 23.4% | Activity (MCF7 [23]): 56.4% | Activity (MCF7 [24]): 19.1% | Activity (MCF7 [25]): 24.3% | Activity (MCF7 [26]): 53.4% | Activity (MCF7 [27]): 19.8% | Activity (MCF7 [28]): 27.2% | inhibition [29]: Dose-dependent-effect | inhibition (MCF7 [30]): Dose-dependent-effect | Activity [31]: 19.9% | Activity [32]: 59% | inhibition [33]: Active | inhibition [34]: Active | inhibition [35]: Active | inhibition [36]: Active | inhibition in vivo at 5 mg/kg (MCF7 [37]): 36% | Activity [38]: Non-toxic | Activity (JIMT-1): Active
